TGI data for nine compounds are collected here from PubChem BioAssay (NCI).

Among the test systems are CAKI-1 renal; A549 NSCLC; DU-145 prostate; HS 578T breast; RPMI-8226 leukemia; MCF7 breast; HCT-116 colon; HCT-15 colon; SK-MEL-2 melanoma; CCRF-CEM leukemia; NCI-H460 lung; MDA-N; ACHN renal; NCI/ADR-RES ovarian; SF-268 CNS; BT-549 breast; OVCAR-3 ovarian.
Holding throughout (experiment): growth of human tumour cells (NCI), 48 h

SMILES strings stand for the structures.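 A five-concentration, 48-hour dose response in 96-well plates underlies each endpoint, interpolated linearly between surrounding concentrations. Definition used: TGI = concentration required for complete inhibition of growth.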

Take `C=CCOC(=O)Cn1cnc2c(N)ncnc21`: the TGI in the assay with CAKI-1 renal, with A549 NSCLC, with DU-145 prostate, in the assay with HS 578T breast, in the assay on RPMI-8226 leukemia and in the assay on MCF7 breast was more than 100 µM throughout. Further, the TGI with HCT-116 colon, in the assay with HCT-15 colon, with SK-MEL-2 melanoma, with CCRF-CEM leukemia, in the assay with NCI-H460 lung and in the assay on MDA-N was more than 100 µM each time. Moreover, the TGI in the assay with ACHN renal, in the assay on NCI/ADR-RES ovarian and with SF-268 CNS was more than 100 µM in each case.

Turning to `Cc1ccc(S(=O)(=O)n2cc(/C=C/C#N)c(-c3cn(S(=O)(=O)c4ccc(C)cc4)cc3-c3cn(S(=O)(=O)c4ccc(C)cc4)cc3/C=C/C#N)c2)cc1`, the TGI in the assay on BT-549 breast, in the assay on CAKI-1 renal, in the assay on DU-145 prostate, in the assay with HS 578T breast, in the assay with RPMI-8226 leukemia and in the assay on HCT-116 colon was more than 100 µM throughout. In addition, the TGI in the assay with HCT-15 colon, with SK-MEL-2 melanoma, in the assay on OVCAR-3 ovarian, in the assay on MDA-N, in the assay with ACHN renal and in the assay with NCI/ADR-RES ovarian was more than 100 µM throughout. In addition, in the assay with SF-268 CNS, the TGI was more than 100 µM.

Turning to `COc1ccc(/C=C/C(=O)c2cc(OC)cc(OC)c2)cc1`, the TGI with CAKI-1 renal is 12.9 µM; in the assay with A549 NSCLC it was 6.96 µM; in the assay with DU-145 prostate it was 10.8 µM; in the assay with HS 578T breast, 15.1 µM; in the assay with RPMI-8226 leukemia it was 26.1 µM; in the assay on MCF7 breast, 0.952 µM. For the same compound, the TGI in the assay with HCT-116 colon came to 6.67 µM; in the assay on HCT-15 colon, 7.9 µM; in the assay on SK-MEL-2 melanoma it was 42.3 µM; in the assay on OVCAR-3 ovarian it was 15.1 µM; in the assay with CCRF-CEM leukemia it was 10.1 µM; in the assay on NCI-H460 lung it was 14.4 µM. Further, the TGI came to 5.33 µM in the assay on MDA-N, 17.7 µM in the assay with ACHN renal, 9.02 µM in the assay with NCI/ADR-RES ovarian and 16.4 µM in the assay on SF-268 CNS.

Turning to `N#CC(C#N)=c1c(=O)c2c3ccccc3cc3cccc1c32`, the TGI in the assay with BT-549 breast was more than 100 µM; in the assay with CAKI-1 renal it was more than 100 µM; in the assay on A549 NSCLC, more than 100 µM; in the assay with DU-145 prostate, more than 100 µM; in the assay on HS 578T breast it was 85 µM; in the assay on RPMI-8226 leukemia it was more than 100 µM. The TGI with HCT-116 colon, in the assay with HCT-15 colon, with SK-MEL-2 melanoma, in the assay with OVCAR-3 ovarian, in the assay with CCRF-CEM leukemia and in the assay on NCI-H460 lung was more than 100 µM throughout. For the same compound, the TGI in the assay on MDA-N, with ACHN renal, in the assay with NCI/ADR-RES ovarian and in the assay with SF-268 CNS was more than 100 µM each time.

As for `CN1CCN(Cn2nc(COc3ccccc3Cl)n(/N=C/c3ccc(-c4ccc(Cl)cc4Cl)o3)c2=S)CC1`, the TGI with CAKI-1 renal was 50.4 µM; with DU-145 prostate, 38.3 µM; in the assay on HS 578T breast, more than 100 µM; in the assay with RPMI-8226 leukemia, 83.8 µM; with MCF7 breast, 53.3 µM; in the assay on HCT-116 colon, 34.7 µM. Besides, the TGI was 74.3 µM in the assay with HCT-15 colon; 45.4 µM with SK-MEL-2 melanoma; 47.5 µM in the assay with OVCAR-3 ovarian; more than 100 µM with CCRF-CEM leukemia; 51.6 µM in the assay with NCI-H460 lung; 53.8 µM in the assay with MDA-N. The TGI in the assay on NCI/ADR-RES ovarian is 61.9 µM; in the assay with SF-268 CNS, more than 100 µM.

In the case of `CC(NCc1c(O)ccc2c(-c3ccccc3)cc(=O)oc12)C(=O)O` (stereo unspecified), the TGI in the assay on CAKI-1 renal, in the assay on A549 NSCLC, in the assay with DU-145 prostate, in the assay on HS 578T breast, in the assay on RPMI-8226 leukemia and in the assay on MCF7 breast was more than 100 µM in each case. Moreover, the TGI in the assay on HCT-116 colon, in the assay with HCT-15 colon, in the assay with SK-MEL-2 melanoma, with OVCAR-3 ovarian, in the assay on CCRF-CEM leukemia and in the assay with NCI-H460 lung was more than 100 µM each time. In addition, the TGI in the assay with MDA-N, with ACHN renal, in the assay on NCI/ADR-RES ovarian and with SF-268 CNS was more than 100 µM in each case.

Regarding `O=C1CSCC(=O)Nc2ccccc2N1`, the TGI with BT-549 breast, with CAKI-1 renal, in the assay on A549 NSCLC, in the assay with DU-145 prostate, with HS 578T breast and in the assay on RPMI-8226 leukemia was more than 100 µM throughout. Moreover, the TGI in the assay on HCT-116 colon, with HCT-15 colon, in the assay with SK-MEL-2 melanoma, in the assay with OVCAR-3 ovarian, with CCRF-CEM leukemia and with NCI-H460 lung was more than 100 µM in each case. For the same compound, the TGI in the assay with MDA-N, with ACHN renal, with NCI/ADR-RES ovarian and in the assay with SF-268 CNS was more than 100 µM each time.

For the compound `COc1ccc2c(O)c(Oc3ccc(Cl)cc3)c(=O)oc2c1`, the TGI with BT-549 breast, in the assay with CAKI-1 renal, in the assay with A549 NSCLC, in the assay on DU-145 prostate, with HS 578T breast and in the assay with RPMI-8226 leukemia was more than 100 µM in each case. The TGI in the assay on MCF7 breast, in the assay on HCT-116 colon, in the assay on HCT-15 colon, in the assay on OVCAR-3 ovarian, in the assay on CCRF-CEM leukemia and with NCI-H460 lung was more than 100 µM each time. In addition, the TGI with MDA-N, with ACHN renal and in the assay with SF-268 CNS was more than 100 µM throughout.

For `O=C(c1ccc2ccccc2c1)C1(I)S(=O)(=O)OCCOS1(=O)=O`, the TGI in the assay on BT-549 breast, in the assay on CAKI-1 renal, with A549 NSCLC, with DU-145 prostate, in the assay with RPMI-8226 leukemia and in the assay with MCF7 breast was more than 100 µM in each case. The TGI in the assay with HCT-116 colon, in the assay with HCT-15 colon, in the assay with SK-MEL-2 melanoma, in the assay on OVCAR-3 ovarian, with CCRF-CEM leukemia and in the assay on NCI-H460 lung was more than 100 µM in each case. Besides, the TGI in the assay with MDA-N, with ACHN renal and in the assay with NCI/ADR-RES ovarian was more than 100 µM throughout.
